Experimental data published in patent US5112382A, “Halopropargyl compounds, compositions, uses and processes of preparation” (Rohm and Haas Company, priority 1990, dated 1992).

Legend:
Cochliobolus sativus = test: In-vitro plant fungicide test, HEL; assay type: cell-based; details: Bipolaris sorokiniana, rate 25 PPM, read-out: % Control
Fusarium roseum = test: microbe, parasite or virus in culture; details: Fusarium sambucinum, read-out: % Control
Escherichia coli = test: MIC, broth two-fold serial dilution test, Ecol; assay type: cell-based; details: read-out: Minimum Inhibitory Concentration (MIC)
Description: (§1) A minimum inhibitory concentration (MIC) value is obtained using a broth, two-fold serial dilution test performed as follows: […] A volume of the stock solution is dispensed into culture media to give an initial starting test concentration of 500 ppm compound. The test is carried out by adding and equal volume of broth to each vessel in the dilution series, except for the first vessel. The first vessel contains twice the volume of broth plus the initial concentration of test compound. One half of the broth from the first vessel is transferred to the second vessel. After being mixed, one half the resulting volume is removed from the second vessel and transferred to the third vessel. The entire cycle is repeated sufficiently to give a series of concentrations amounting to 500, 250, 125, 63, 31, 16, 8, and 4 ppm (or 100, 50, 25, 12.5, 6.2, 3.1, 1.6, and 0.8), respectively. Each vessel is then inoculated with a cell suspension of the appropriate test organism. Bacteria are grown in both and fungi on agar slats for a time and at a temperature appropriate to the species being tested. At the end of the growth period, the broth is vortexed to disperse the cells. In the case of fungi, the pores are harvested by pipetting water onto the slant and dislodging the spores with a sterile loop. The cell/spore suspension is standardized by controlling incubation time, temperature, and the volume of the diluent. The suspension is then used to inoculate the vessels containing the broth compound. The vessels are then incubated at the appropriate temperature. After the incubation, the vessels are examined for growth/no growth. The minimum inhibitory concentration (MIC) is defined as the lowest concentration of compound that results in complete inhibition of growth of the test organism.

[1] = system: Erysiphe graminis (f. sp. tritici); test: whole plant or invertebrate; assay type: in vivo; details: Blumeria graminis
Pseudomonas fluorescens = test: MIC, broth two-fold serial dilution test, Psfl; assay type: cell-based; details: read-out: Minimum Inhibitory Concentration (MIC)
Description: as §1

Rhizoctonia solani = test: In-vitro plant fungicide test, RHI; assay type: cell-based; details: rate 25 PPM, read-out: % Control
Xanthomonas campestris = test: In-vitro plant fungicide test, XAN; assay type: cell-based; details: XAN, rate 25 PPM, read-out: % Control
Septoria nodorum = test: In-vitro plant fungicide test, SEP; assay type: cell-based; details: Parastagonospora nodorum, rate 25 PPM, read-out: % Control
Pseudomonas aerugenosa = test: MIC, broth two-fold serial dilution test, Psae; assay type: cell-based; details: read-out: Minimum Inhibitory Concentration (MIC)
Description: as §1

[2] = system: Pseudoperonospora cubensis; test: whole plant or invertebrate; assay type: in vivo; details: in Cucumis sativus, 168 h
Phytophthora infestans = test: whole plant or invertebrate; assay type: in vivo; details: in Solanum lycopersicum, 96 h, read-out: % Control
Aspergillus niger = test: MIC, broth two-fold serial dilution test, Anig; assay type: cell-based; details: read-out: Minimum Inhibitory Concentration (MIC)
Description: as §1

Phytophthora capsici = test: In-vitro plant fungicide test, PHY; assay type: cell-based; details: rate 25 PPM, read-out: % Control
Piricularia oryzae [3] = test: microbe, parasite or virus in culture; assay type: cell-based; details: read-out: % Control
Piricularia oryzae [4] = test: whole plant or invertebrate; assay type: in vivo; details: Pyricularia oryzae, 192 h, read-out: % Control
Staphylococcus aureus = test: MIC, broth two-fold serial dilution test, Saur; assay type: cell-based; details: read-out: Minimum Inhibitory Concentration (MIC)
Description: as §1

Botrytis cinerea = test: In-vitro plant fungicide test, BOC; details: read-out: % Control
Pythium ultimum = test: In-vitro plant fungicide test, PYU; assay type: cell-based; details: Globisporangium ultimum, rate 25 PPM, read-out: % Control
Aureobasidium pullulans = test: MIC, broth two-fold serial dilution test, Apul; assay type: cell-based; details: read-out: Minimum Inhibitory Concentration (MIC)
Description: as §1

[5] = system: Septoria glume blotch of wheat; test: whole plant or invertebrate; assay type: in vivo; details: Triticum aestivum
[6] = system: Puccinia recondita (f. sp. tritici Races PKB and PLD); test: whole plant or invertebrate; assay type: in vivo; details: 240 h

Molecule `CCOC(=O)N(CC#CBr)N=Cc1ccc(Cl)c(Cl)c1` [Compound 14, N'-Ethoxycarbonyl-N'-3-bromopropargyl 3,4-dichlorobenzaldehyde hydrazone] has an inhibition of growth at 25 ppm (Cochliobolus sativus) of 0%, an inhibition of growth at 25 ppm (Fusarium roseum) of 0% and an MIC (Escherichia coli) greater than 100 µg/mL. It also gave a pest or weed control at 200 ppm [1] of 85%, an MIC (Pseudomonas fluorescens) greater than 100 µg/mL and an inhibition of growth at 25 ppm (Rhizoctonia solani) of 50%. For the same molecule, the inhibition of growth at 25 ppm (Xanthomonas campestris) was 0%, the inhibition of growth at 25 ppm (Septoria nodorum) was 0% and the MIC (Pseudomonas aerugenosa) was greater than 100 µg/mL. The pest or weed control at 200 ppm [2] was 0%, the pest or weed control at 200 ppm (Phytophthora infestans) was 0% and the MIC (Aspergillus niger) was greater than 100 µg/mL. It also gave an inhibition of growth at 25 ppm (Phytophthora capsici) of 0%, an inhibition of growth at 25 ppm (Piricularia oryzae [3]) of 0% and a pest or weed control at 200 ppm (Piricularia oryzae [4]) of 0%. It also gave an MIC (Staphylococcus aureus) greater than 100 µg/mL, an inhibition of growth at 25 ppm (Botrytis cinerea) of 0% and an inhibition of growth at 25 ppm (Pythium ultimum) of 0%. The MIC (Aureobasidium pullulans) was greater than 100 µg/mL, the pest or weed control at 200 ppm [5] was 0% and the pest or weed control at 200 ppm [6] was 0%.
In the case of `COC(=O)N(CC#CI)N=Cc1cc(Cl)cc(Cl)c1` [Compound 15, N'-Methoxycarbonyl-N'-3-iodopropargyl 3,5-dichlorobenzaldehyde hydrazone], the inhibition of growth at 25 ppm (Cochliobolus sativus) was 50%, the inhibition of growth at 25 ppm (Fusarium roseum) was 75% and the MIC (Escherichia coli) was greater than 100 µg/mL. The pest or weed control at 200 ppm [1] was 0%, the MIC (Pseudomonas fluorescens) was greater than 100 µg/mL and the inhibition of growth at 25 ppm (Rhizoctonia solani) was 75%. For the same molecule, the inhibition of growth at 25 ppm (Xanthomonas campestris) was 0%, the inhibition of growth at 25 ppm (Septoria nodorum) was 0% and the MIC (Pseudomonas aerugenosa) was greater than 100 µg/mL. The pest or weed control at 200 ppm [2] was 0%, the pest or weed control at 200 ppm (Phytophthora infestans) was 0% and the MIC (Aspergillus niger) was greater than 100 µg/mL. For the same molecule, the inhibition of growth at 25 ppm (Phytophthora capsici) was 0%, the inhibition of growth at 25 ppm (Piricularia oryzae [3]) was 100% and the pest or weed control at 200 ppm (Piricularia oryzae [4]) was 0%. For the same molecule, the MIC (Staphylococcus aureus) was greater than 100 µg/mL, the inhibition of growth at 25 ppm (Botrytis cinerea) was 0% and the inhibition of growth at 25 ppm (Pythium ultimum) was 0%. The MIC (Aureobasidium pullulans) was greater than 100 µg/mL, the pest or weed control at 200 ppm [5] was 0% and the pest or weed control at 200 ppm [6] was 0%.
Work on `COC(=O)N(CC#CBr)N=Cc1cc(Cl)cc(Cl)c1` [Compound 16, N'-Methoxycarbonyl-N'-3-bromopropargyl 3,5-dichlorobenzaldehyde hydrazone] yielded an inhibition of growth at 25 ppm (Cochliobolus sativus) of 0%, an inhibition of growth at 25 ppm (Fusarium roseum) of 0% and an MIC (Escherichia coli) greater than 100 µg/mL. The pest or weed control at 200 ppm [1] was 0%, the MIC (Pseudomonas fluorescens) was greater than 100 µg/mL and the inhibition of growth at 25 ppm (Rhizoctonia solani) was 0%. For the same molecule, the inhibition of growth at 25 ppm (Xanthomonas campestris) was 0%, the inhibition of growth at 25 ppm (Septoria nodorum) was 0% and the MIC (Pseudomonas aerugenosa) was greater than 100 µg/mL. For the same molecule, the pest or weed control at 200 ppm [2] was 0%, the pest or weed control at 200 ppm (Phytophthora infestans) was 0% and the MIC (Aspergillus niger) was greater than 100 µg/mL. It also gave an inhibition of growth at 25 ppm (Phytophthora capsici) of 0%, an inhibition of growth at 25 ppm (Piricularia oryzae [3]) of 0% and a pest or weed control at 200 ppm (Piricularia oryzae [4]) of 0%. It also gave an MIC (Staphylococcus aureus) greater than 100 µg/mL, an inhibition of growth at 25 ppm (Botrytis cinerea) of 0% and an inhibition of growth at 25 ppm (Pythium ultimum) of 0%. For the same molecule, the MIC (Aureobasidium pullulans) was greater than 100 µg/mL, the pest or weed control at 200 ppm [5] was 0% and the pest or weed control at 200 ppm [6] was 0%.
